How the values were obtained:
[1] = system: non-obese diabetic (NOD) female mice; experiment: NOD mice orally challenged with gliadin; assay type: in vivo, mouse
Description: In the second model of gluten sensitivity, the Applicant resorted to non-obese diabetic (NOD) female mice, which spontaneously develop autoimmune type-1 diabetes (Maurano, F., et al. 2005).
BALB/c mice (background BALB/cAnNCrl) were purchased from Charles River (Varese, Italy). Three generation gluten-free diet (Mucedola srl, Milan), male and female, were challenged with gliadin for 4 weeks. […]
Chambers for mounting either transwell cell cultures or mouse tissue biopsies were obtained from Physiologic Instruments (model P2300, San Diego, Calif., USA). […] Shortcircuit current (expressed as Isc (μA/cm2)) and resistance were acquired or calculated using the VCC600 transepithelial clamp from Physiologic Instruments and the Acquire & Analyze 2.3 software for data acquisition (Physiologic Instruments), as previously described Tosco A, et al. 2016; Romani, L. et al. 2017).
ELISA analysis was performed on tissue samples using standard ELISA kits (R&D Systems) for IL-15, IL-17A, INFγ IL21, IL10, TGF-β. […] Samples were read in triplicate at 450 nm in a Microplate Reader (BioRad, Milan, Italy) using Microplate Manager 5.2.1 software. Values were normalized to protein concentration evaluated by Bradford analysis. […]

rhNBD1 ATP binding site = experiment: Intrinsic tryptophan (W401) fluorescence of NBD1; set-up: species or system human; details: preincubation of rhNBD1 with peptide
Sequence of rhNBD1 ATP binding site (P13569 389-646 limits assumed): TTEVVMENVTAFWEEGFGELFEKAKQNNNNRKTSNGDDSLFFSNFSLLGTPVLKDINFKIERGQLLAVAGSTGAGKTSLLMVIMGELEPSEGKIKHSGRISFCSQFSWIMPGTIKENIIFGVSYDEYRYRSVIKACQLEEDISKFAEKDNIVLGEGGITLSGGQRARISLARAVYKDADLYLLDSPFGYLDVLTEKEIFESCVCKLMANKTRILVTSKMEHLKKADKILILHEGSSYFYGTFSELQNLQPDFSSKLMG
Description: To assess the capability of P31-43 peptide to bind NBD1 domain and modify its ATP binding site the intrinsic Tryptophan fluorescence of NBD1 was measured. Experiments were performed in a 0.2 ml fluorimeter cuvette at 25° C. using Varian Cary Eclipse fluorescence spectrophotometer. NBD1 protein was diluted to 1 μM in a buffer containing 50 mM Tris/HCl (pH 7.6), 150 mM NaCl, and 5 mM MgCl2, supplemented with 2 mM ATP and P31-43 5 μM when indicated. All spectra were corrected for buffer fluorescence. Excitation wavelength was adjusted to 292 nm and emission was scanned over the range 300-500 nm.

TG2 / NBD1 = experiment: Cell-free system with recombinant TG2, NBD1 and synthetic peptide (native PAGE); assay type: biochemical; details: Ca2+-activated TG2
Description: FIG. 5: a, Immunoprecipitation of TG2 protein 15 in Caco-2 cells challenged with P57-68, PGAV or P31-43 and blotted with HRP-streptavidin. b, Immunoprecipitation of CFTR protein in Caco-2 cells challenged with P31-43 in the presence of absence of the TG2 inhibitor ZDON or TG2 RNA silencing and 20 blotted with anti-isopeptide glutamime-lysine and anti-TG2 antibodies. c, Recombinant TG2 and/or NBD1 incubated in vitro with P31-43 and solved in native page in the presence or absence of Ca2+. d, Immunoprecipitation of CFTR protein and immunblot with anti-CFTR antibodies or anti-TG2 antibodies. e, Immunoprecipitation of CFTR protein and immunoblot with anti-TG2 or anti-CFTR antibodies; effects of ZDON and BAPTA-AM. f, In situ detection of TG2 activity in Caco-2 cells pulsed with Ca2+ in the presence or absence of VX-770 or Z-DON. Activity assay by immunoblotting of the TG-catalyzed incorporation of 5-biotinamidopentylamine (BAP) and blotting with anti-biotin antibody. g, In situ TG2 activity assay, by immunostaining of the TG-catalysed incorporation of monodansylcadaverin, on Caco-2 cells pre-incubated with VX-770 or Z-DON and then pulsed with P31-43. Scale bar 50 μm. h, Immunoprecipitation of PKAr2a protein and immunoblot with isopeptide glutamime-lysine antibody in Caco-2 cells challenged with P57-68 or P31-43 in the absence or presence of VX-770. (i,j). […]

| Molecule | immunoprotective effects (IL-15, IL-17A, IFN-γ protein) ([1]; NOD mice challenged with gliadin after diabetes onset) | effect on gliadin-induced reduction in CFTR function ([1]; NOD mice, VX-770 i.p.) | effect on ATP quenching of W401 fluorescence (rhNBD1 ATP binding site) | TG2-catalyzed covalent interaction with NBD1 (TG2 / NBD1) |
| --- | --- | --- | --- | --- |
| CC(C)(C)c1cc(C(C)(C)C)c(NC(=O)c2c[nH]c3ccccc3c2=O)cc1O [VX-770, N-(2,4-di-tert-butyl-5-hydroxyphenyl)-4-oxo-1,4-dihydroquinoline-3-carboxamide] | immunoprotective effects of VX-770 were confirmed | inhibitable |  |  |
| α-gliadin peptide LGQQQPFPPQQPY (SEQ ID 1), induces an enterocyte stress response (P31-43 sequence of alpha-gliadin) |  |  | quenching effect of ATP on W401 fluorescence was reduced | Ca2+-activated TG2 catalyzed covalent interactions between P31-43 and NBD1 |

Reference: patent US20200206198A1, “CFTR CHANNEL ACTIVATOR FOR USE IN THE TREATMENT AND/OR PREVENTION OF GLUTEN SENSITIVITY CONDITIONS” (priority 2017, published 2020)
